From patent US20160202234A1, “METHOD FOR EVALUATING, VIA BIODOSIMETRY, THE I[…] RECEIVED BY A PERSON SUBJECTED TO IONIZING RADIATION” (ACUBENS, priority 2013, published 2016)

Test system: two different cell lines, respectively sensitive S and resistant R
Assay: ratio of apoptotic cells as a function of NCS concentration, compared with irradiation dose
Format: cell-based
Details: concentration of 1 nM of neocarzinostatin
Experimental: FIG. 27 is a graph showing the change in the amount of apoptotic cells in a mixture as a function of the quantity of NCS in this mixture,
FIG. 28 is a graph showing the change in the number of apoptotic cells as a function of the irradiation dose received by an individual,
The substance used is for example neocarzinostatin (NCS). […] These graphs made it possible to determine in particular that a concentration of 1 nM of neocarzinostatin is equivalent to, that is to say produces the same effect as, an irradiation dose of 1.2 Gy. Several hair samplings are carried out on the same region of an individual, along with a plurality of blood samplings. Two of the samples are subjected to the action of NCS at a known dose, for example equivalent to 1 Gy, in reaction wells in a plate. Each sample can be treated and analysed, as described previously. One of the two samples is analysed immediately at the same time as a sample that has not received treatment, and the second is analysed after a given period Δt, for example 1 hour.

Substance: neocarzinostatin
- irradiation dose equivalent to (produces the same effect as) the neocarzinostatin concentration: 1.2 Gy
